Experimental data reported in patent US8906868B2, “Aminoglycoside derivatives” (Rempex Pharmaceuticals, Inc., priority 2010, dated 2014).
Where two headings read alike, the source gives them in different places.

Experiments:
[1] = tested on: ECM6010 ant(2″)-I; assay: microbe, parasite or virus in culture; assay type: cell-based, Escherichia coli; settings: Escherichia coli, read-out: Compound MIC on Bacterial Strains: ECM6010 ant(2″)-I
Description: (§1) To compare microbiological activity of the test compounds, minimum inhibitory concentrations (MIC.s) were determined. Antibiotic MICs were obtained using the broth microdilution method according to Clinical and Laboratory Standards Institute (CLSI) approved guidelines (Methods for dilution antimicrobial susceptibility tests for bacteria that grow aerobically; approved standard—7th ed. CLSI document M7-A7. Clinical and Laboratory Standards Institute, Wayne, Pa., incorporated herein by reference in its entirety). Antibiotics were dissolved as specified by CLSI (Performance standards for antimicrobial susceptibility testing; Seventeenth informational supplement. CLSI document M100-S17. Clinical and Laboratory Standards Institute, Wayne, Pa., incorporated herein by reference in its entirety), and were serially diluted 2-fold in cation adjusted Mueller Hinton Broth (CaMHB) at 2× concentration. Bacterial inoculums were prepared in CaMHB by suspension of a colony from an agar plate that was prepared the previous day to obtain a final concentration of 5×10^5CFU/ml. The plates were incubated for 18 hours at 35° C. […] MIC.s were determined by reading the turbidity of plate wells using a SpectraMax Plus384 plate reader (Molecular Devices, Sunnyvale, Calif., USA) at 600 nm and were confirmed by visual inspection.
(§2) Activity of the test compounds was determined using QC strains and strains with known aminoglycoside resistance mechanisms (TABLE 3). This specific panel contained strains expressing enzymes that covalently modify N2″, N3 and N3′ positions.

[2] = tested on: ECM6009 aac(3)-II; assay: microbe, parasite or virus in culture; assay type: cell-based, Escherichia coli; settings: Escherichia coli, read-out: Compound MIC on Bacterial Strains: ECM6009 aac(3)-II
Description: as §1, §2

[3] = tested on: ECM6006 aph(3′)-III; assay: microbe, parasite or virus in culture; assay type: cell-based, Escherichia coli; settings: Escherichia coli, read-out: Compound MIC on Bacterial Strains: ECM6006 aph(3′)-III
Description: as §1, §2

[4] = tested on: ECM6011 aph(3′)-I; assay: microbe, parasite or virus in culture; assay type: cell-based, Escherichia coli; settings: Escherichia coli, read-out: Compound MIC on Bacterial Strains: ECM6011 aph(3′)-I
Description: as §1, §2

[5] = tested on: Staphylococcus aureus (ATCC 29213); assay: MIC, broth microdilution; settings: Staphylococcus aureus
[6] = tested on: ACM1006 acc(6′)-Ib; assay: microbe, parasite or virus in culture; assay type: cell-based, Acinetobacter baumannii; settings: Acinetobacter baumannii; Table 4; read-out: Compound MIC on Bacterial Strains: Acinetobacter baumannii ACM1006 acc(6′)-Ib
Description: as §1

[7] = tested on: ACM1005 ATCC 19004; assay: MIC, broth microdilution; assay type: cell-based, Acinetobacter baumannii; settings: Acinetobacter baumannii, ATCC19004; Table 4; read-out: Compound MIC on Bacterial Strains: Acinetobacter baumannii ACM1005 ATCC 19004
Description: as §1

[8] = tested on: Acinetobacter baumannii (ATCC 19606); assay: MIC, broth microdilution; settings: Acinetobacter baumannii, ATCC19606, read-out: Compound MIC on Bacterial Strains: A. baumannii ATCC 19606
[9] = tested on: PAM3072 aac(6′)-II; assay: microbe, parasite or virus in culture; assay type: cell-based, Pseudomonas aeruginosa; settings: Pseudomonas aeruginosa, Table 5; read-out: Compound MIC on Bacterial Strains: Pseudomonas aeruginosa PAM3072 aac(6′)-II
Description: as §1

[10] = tested on: PAM3073 aac(6′)-I; assay: microbe, parasite or virus in culture; assay type: cell-based, Pseudomonas aeruginosa; settings: Pseudomonas aeruginosa, Table 5; read-out: Compound MIC on Bacterial Strains: Pseudomonas aeruginosa PAM3073 aac(6′)-I
Description: as §1

[11] = tested on: Klebsiella pneumonia (ATCC 43816); assay: MIC, broth microdilution; settings: Klebsiella pneumoniae, ATCC43816, read-out: Compound MIC on Bacterial Strains: K. pneumonia ATCC 43816
[12] = tested on: Pseudomonas aeruginosa (ATCC 27853); assay: MIC, broth microdilution; settings: Pseudomonas aeruginosa
[13] = tested on: ECM6007 aac(6′) + aph(2″); assay: microbe, parasite or virus in culture; assay type: cell-based, Escherichia coli; settings: Escherichia coli, 18 h; Table 4; read-out: Compound MIC on Bacterial Strains: Escherichia coli ECM6007 aac(6′) + aph(2″)
Description: as §1

[14] = tested on: EC1001 acc(6′)-Ib; assay: microbe, parasite or virus in culture; assay type: cell-based, Escherichia coli; settings: Escherichia coli; Table 4; read-out: Compound MIC on Bacterial Strains: Escherichia coli EC1001 acc(6′)-Ib
Description: as §1

[15] = tested on: ECM6003 rmtB; assay: microbe, parasite or virus in culture; assay type: cell-based, Escherichia coli; settings: Escherichia coli; Table 3; read-out: Compound MIC on Bacterial Strains: ECM6003 rmtB
Description: as §1, §2
The panel also contained a strain expressing ribosomal RNA methylase, RmtB.

[16] = tested on: Escherichia coli (ATCC 25922); assay: MIC, broth microdilution; settings: Escherichia coli
[17] = tested on: EC1002 aph(3′)-IV; assay: organism not typed; assay type: cell-based; settings: read-out: Compound MIC on Bacterial Strains: EC1002 aph(3′)-IV
Description: as §1, §2

[18] = ATCC29213, read-out: Compound MIC on Bacterial Strains: S. aureus ATCC 29213, QC strain, Table 2
[19] = ATCC29213, read-out: Compound MIC on Bacterial Strains: Staphylococcus aureus SAM1000 ATCC 29213, Table 5
[20] = ATCC27853, read-out: Compound MIC on Bacterial Strains: P. aeruginosa ATCC 27853
[21] = ATCC27853, read-out: Compound MIC on Bacterial Strains: Pseudomonas aeruginosa PAM3034 ATCC 27853
[22] = ATCC25922, read-out: Compound MIC on Bacterial Strains: E. coli ATCC 25922
[23] = ATCC25922, read-out: Compound MIC on Bacterial Strains: ECM6000 ATCC 25922
[24] = ATCC25922, read-out: Compound MIC on Bacterial Strains: Escherichia coli ECM6000 ATCC 25922

Measured: MIC

CN[C@@H]1[C@@H](O)[C@@H](O[C@@H]2[C@@H](O)[C@H](O[C@H]3O[C@H](CNCCO)CC[C@H]3N)[C@@H](N)C[C@H]2NC(=O)C2(O)CNC2)OC[C@]1(C)O [Compound 43, N-((1R,2S,3S,4R,5S)-5-amino-4-((2R,3R,6S)-3-amino-6-((2-hydroxyethylamino)methyl)tetrahydro-2H-pyran-2-yloxy)-2-((2R,3R,4R,5R)-3,5-dihydroxy-5-methyl-4-(methylamino)tetrahydro-2H-pyran-2-yloxy)-3-hydroxycyclohexyl)-3-hydroxyazetidine-3-carboxamide]
< 1 µg/mL: [1] | [3] | [4] | [5]; [18] | [5]; [19] | [6] | [11] | [13] | [16]; [22] | [16]; [23] | [16]; [24]
1 to 8 µg/mL: [2] | [7] | [10] | [12]; [20] | [12]; [21] | [14] | [17]
> 8 µg/mL: [8] | [9] | [15]

CN[C@@H]1[C@@H](O)[C@@H](O[C@@H]2[C@@H](O)[C@H](O[C@H]3O[C@H](CNCCF)CC[C@H]3N)[C@@H](N)C[C@H]2NC(=O)[C@@H](O)CN)OC[C@]1(C)O [Compound 46, (S)-3-amino-N-((1R,2S,3S,4R,5S)-5-amino-4-((2R,3R,6S)-3-amino-6-((2-fluoroethylamino)methyl)tetrahydro-2H-pyran-2-yloxy)-2-((2R,3R,4R,5R)-3,5-dihydroxy-5-methyl-4-(methylamino)tetrahydro-2H-pyran-2-yloxy)-3-hydroxycyclohexyl)-2-hydroxypropanamide]
< 1 µg/mL: [1] | [2] | [3] | [4] | [5]; [18] | [5]; [19] | [11] | [13] | [16]; [22] | [16]; [23] | [16]; [24] | [17]
> 8 µg/mL: [8] | [9] | [15]
1 to 8 µg/mL: [6] | [7] | [10] | [12]; [20] | [12]; [21] | [14]

CCN[C@@H]1C[C@H](N)[C@@H](O[C@H]2OC(CN)=CC[C@H]2N)[C@H](O)[C@H]1O[C@H]1OC[C@](C)(O)[C@H](NC)[C@H]1O [Netilmicin, reference compound]
< 1 µg/mL: [1] | [3] | [4] | [5]; [18] | [5]; [19] | [11] | [13] | [16]; [22] | [16]; [23] | [16]; [24] | [17]
> 8 µg/mL: [2] | [6] | [8] | [9] | [10] | [14] | [15]
1 to 8 µg/mL: [7] | [12]; [20] | [12]; [21]
